This is an account of results in patent publication US9089546B2, “Synergistic compositions consisting essentially of combinations of active agents selected from oridonin, wogonin, and isoliquiritigenin for the prevention of neoplasia” (ACTIVEPHYTO TECHNOLOGIES LIMITED, priority 2006, dated 2015).

Common to all, as to type: cell-based
One experiment concerns PTX10. As to the kind of experiment: MTT assay, second set of experiments (Experiment 4), single agents. The conditions noted are these: Homo sapiens, PTX10 (taxol-resistant). Here is the method: (§1) Inhibition of Cell-Growth and Viability […]: The MTT reagent kit was purchased from Boehringer Mannheim (Roche Diagnosis Corp, Indianapolis, Ind.) to count viable cells. […] The protocol for the cell viability assay was provided by the manufacturer and modified in our laboratory as described below: Ovarian cancer cells were seeded in 96 well microtiter plates at a concentration of 6×10^3 cells per well, in a volume of 100 μL of cell culture medium. After 24 hours, 20 μL aliquots of the compounds at various concentrations were added to the attached cells. Each concentration was plated into 3 wells to obtain mean values. To eliminate any solvent effect, 20 μL of the solvent used in the preparation of the highest concentration of the compounds (a maximum of 0.5% by volume of DMSO) was added to the control cells in each well. The plates were incubated at 37° C. in the CO2 incubator for 72 hours. At the end of day 3, the culture medium was carefully removed without disturbing the cells, and replaced by 100 μL of fresh cell medium. 10 μL of MTT reagent was added to each well and the plates were incubated again in the CO2 incubator at 37° C. for 4 hours. 100 μL of SDS solubilising reagent (from Boehringer Mannheim) was added to each well. The plate was allowed to stand overnight in the CO2 incubator and read by ELISA Reader (EL800, Bio-Tek Instruments, Inc.) at a wavelength of 570 nm. The percent cell viability was calculated according to the equation below: 100% (absorption of the control cells-absorption of the treated cells)/absorption of the control cells. A second set of experiments were carried out showing how the compounds in the formulations of the invention act in synergy with one another. The experimental results differ slightly from those reported above as the experimental work was carried out in a different laboratory and under slightly different conditions. In the second set of experiments the MTT reagent kit was purchased from Sigma-Aldridge in the UK and, due to time constraints; the cells were only incubated overnight prior to being treated with the drugs. The cell lines were also of different origin (the second set being obtained directly from Dr Marianne Poruch of the NIH, Bethesda Md., USA) and may have been subjected to different conditions during storage.

In a further experiment the test system is A2780. The description is as above. Conditions: Homo sapiens. Here is the method: as §1
In experiment [1] the test system is human ovarian cancer cell lines A2780 (sensitive) and PTX-10 (resistant to taxol). Briefly: Antiproliferative activity, MTT cell viability assay, first set of experiments (72 h), comparison of the two cell lines. Conditions: A2780 versus taxol-resistant PTX-10. The text has this:
The present investigation uses two types of cancer cells: A2780 and PTX-10. A2780 is typical of most human ovarian cancers and is not known to be drug-resistant. PTX10 is a taxol-resistant variant of A2780. These two cell types provide a model to compare the effectiveness of the compositions of the present invention against a typical ovarian human cancer where taxol would be a useful treatment and a tumour line where taxol is not useful in treatment.
Cell lines: A2780 and PTX-10 cell lines were from National Institute of Health, Bethesda, Md.
Cell Culture: Both cell lines were cultured in RPMI 1640 supplemented with 10% foetal bovine serum, L-glutamine and antibiotics according to the method of Halicka et al. (Int. J. Oncology 1:437-48, 1997). All media, supplements, and antibiotics were obtained from Life Technologies (Grand Island, N.Y.). The cultures were periodically tested for Mycoplasma infection.
To maintain asynchronous exponential growth, these adherent cells were routinely seeded at 3×10^5 in a T-75 flask and incubated at 37° C. in 5% CO2 for 5-6 days and then repassaged at a 1:10 dilution by trypsinisation (0.25% trypsin/1 mM EDTA). Morphological changes and cell counts of the control and treated cancer cells were determined by light microscopy. Only exponentially and asynchronously growing cells were used in all experiments.
Inhibition of Cell-Growth and Viability AssASYS: The MTT reagent kit was purchased from Boehringer Mannheim (Roche Diagnosis Corp, Indianapolis, Ind.) to count viable cells. […] The protocol for the cell viability assay was provided by the manufacturer and modified in our laboratory as described below: […]
The plates were incubated at 37° C. in the CO2 incubator for 72 hours. […] The plate was allowed to stand overnight in the CO2 incubator and read by ELISA Reader (EL800, Bio-Tek Instruments, Inc.) at a wavelength of 570 nm. The percent cell viability was calculated according to the equation below: 100% (absorption of the control cells−absorption of the treated cells)/absorption of the control cells. […]

Regarding `COc1c(O)cc(O)c2c(=O)cc(-c3ccccc3)oc12` [Formula III, wogonin], the figures for the concentration for half-maximal inhibition (IC50) with PTX10 and in the experiment on A2780 were 590 ± 380 nM and 670 ± 230 nM, respectively. The “relative sensitivity of the cell lines (dose-response curves, antiproliferative activity)” value in experiment [1] was “PTX-10 cell line is slightly more sensitive”.
For the molecule `C=C1C(=O)[C@]23[C@H](O)[C@H]1CC[C@H]2[C@@]12CO[C@]3(O)[C@@H](O)[C@@H]1C(C)(C)CC[C@@H]2O` [Formula I, oridonin], the IC50 in the experiment with PTX10 turned out to be 4720 ± 3700 nM; in the experiment on A2780 it was 810 ± 130 nM. Besides, the “relative sensitivity of the cell lines (dose-response curves, antiproliferative activity)” value in experiment [1] is listed as “A2780 cell line is more sensitive”.
The corresponding values for `O=C(/C=C/c1ccc(O)cc1)c1ccc(O)cc1O` [Formula V, isoliquiritigenin] are 300 ± 130 nM, 2400 ± 420 nM and “PTX-10 cell line is more sensitive”.
